Molecular target: T1, human PKCθ full length enzyme (Homo sapiens, UniProt Q04759)
T1 construct: human PKCθ full length enzyme (Panvera Catalog No. P2996); purchased Panvera P2996
Assay: PKCθ IMAP Assay
Format: biochemical
Details: average value when one or more samples were tested; ATP 6 uM, PKCθ 1 nM
Outline: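 IMAP fluorescence polarization after 20 min with binding beads measured phosphorylation of 100 nM 5FAM-peptide. Reactions held 1 nM full-length human PKCθ, 6 uM ATP, 5% DMSO and DTT-containing buffer, 25 min at room temperature. Compounds tested as 2:1 serial dilutions; controls lacked ATP or enzyme.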

T1 sequence (Q04759 whole entry): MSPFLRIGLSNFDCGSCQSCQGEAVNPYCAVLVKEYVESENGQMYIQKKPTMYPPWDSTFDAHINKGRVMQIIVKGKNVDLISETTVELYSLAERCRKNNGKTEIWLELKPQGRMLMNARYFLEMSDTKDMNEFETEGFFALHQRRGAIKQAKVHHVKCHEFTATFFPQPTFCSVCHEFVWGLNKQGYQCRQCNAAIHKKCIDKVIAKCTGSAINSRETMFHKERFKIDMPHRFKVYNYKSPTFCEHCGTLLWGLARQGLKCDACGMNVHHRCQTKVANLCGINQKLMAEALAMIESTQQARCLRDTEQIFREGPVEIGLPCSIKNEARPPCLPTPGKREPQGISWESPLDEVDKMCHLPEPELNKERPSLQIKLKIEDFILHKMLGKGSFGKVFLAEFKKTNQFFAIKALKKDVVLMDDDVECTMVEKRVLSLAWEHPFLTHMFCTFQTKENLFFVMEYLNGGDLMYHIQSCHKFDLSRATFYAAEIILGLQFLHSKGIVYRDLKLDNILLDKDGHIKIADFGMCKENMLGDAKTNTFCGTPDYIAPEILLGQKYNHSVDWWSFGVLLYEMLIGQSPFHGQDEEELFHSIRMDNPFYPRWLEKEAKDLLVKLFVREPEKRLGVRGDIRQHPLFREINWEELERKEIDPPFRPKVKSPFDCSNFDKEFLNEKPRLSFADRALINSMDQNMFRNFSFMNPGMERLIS

| Structure (SMILES) | IC50 |
| --- | --- |
| Cc1c(Nc2c(C#N)cnc3sc(/C=C/CN4CCN(C)CC4)cc23)ccc2[nH]ccc12 [Compound 278, 4-[(4-methyl-1H-indol-5-yl)amino]-2-[(1E)-3-(4-methylpiperazin-1-yl)prop-1-en-1-yl]thieno[2,3-b]pyridine-5-carbonitrile] | 12 nM |
| N#Cc1cnc2sc(/C=C/CCO)cc2c1Nc1ccc2[nH]ccc2c1 [Compound 403, 2-[(1E)-4-hydroxybut-1-en-1-yl]-4-(1H-indol-5-ylamino)thieno[2,3-b]pyridine-5-carbonitrile] | 394 nM |
| Cc1c(Nc2c(C#N)cnc3sc(/C=C/CCN4CCN(C)CC4)cc23)ccc2[nH]ccc12 [Compound 272, 4-[(4-methyl-1H-indol-5-yl)amino]-2-[(1E)-4-(4-methylpiperazin-1-yl)but-1-en-1-yl]thieno[2,3-b]pyridine-5-carbonitrile] | 45 nM |
| COCCNCc1cccc(-c2cc3c(Nc4ccc5[nH]ccc5c4)c(C#N)cnc3s2)c1 [Compound 165, 4-(1H-indol-5-ylamino)-2-(3-{[(2-methoxyethyl)amino]methyl}phenyl)thieno[2,3-b]pyridine-5-carbonitrile] | 110 nM |
| Cc1c(Nc2c(C#N)cnc3sc(I)c(C(C)C)c23)ccc2[nH]ccc12 [Compound 324, 2-iodo-3-isopropyl-4-[(4-methyl-1H-indol-5-yl)amino]thieno[2,3-b]pyridine-5-carbonitrile] | 65 nM |
| N#Cc1cnc2sc(/C=C/c3ccccc3)cc2c1Nc1ccc2[nH]ccc2c1 [Compound 400, 4-(1H-indol-5-ylamino)-2-[(E)-2-phenylvinyl]thieno[2,3-b]pyridine-5-carbonitrile] | 437 nM |
| Cc1c(Nc2c(C#N)cnc3sc(-c4cnc(N(C)C)nc4)cc23)ccc2[nH]ccc12 [Compound 331, 2-[2-(dimethylamino)pyrimidin-5-yl]-4-[(4-methyl-1H-indol-5-yl)amino]thieno[2,3-b]pyridine-5-carbonitrile] | > 25000 nM |
| Cc1c(Nc2c(C#N)cnc3sc(-c4nccn4C)cc23)ccc2[nH]ccc12 [Compound 432, 2-(1-methyl-1H-imidazol-2-yl)-4-[(4-methyl-1H-indol-5-yl)amino]thieno[2,3-b]pyridine-5-carbonitrile] | 49 nM |
| CS(=O)(=O)Nc1ccccc1-c1cc2c(Nc3ccc4[nH]ccc4c3)c(C#N)cnc2s1 [Compound 370, N-{2-[5-cyano-4-(1H-indol-5-ylamino)thieno[2,3-b]pyridin-2-yl]phenyl}methanesulfonamide] | 1010 nM |
| N#Cc1cnc2sc(-c3cccc(CNCC4CCCO4)c3)cc2c1Nc1ccc2[nH]ccc2c1 (centres unmarked) [Compound 179, 4-(1H-indol-5-ylamino)-2-(3-{[(tetrahydrofuran-2-ylmethyl)amino]methyl}phenyl) thieno[2,3-b] pyridine-5-carbonitrile] | 150 nM |
| Cc1c(Nc2c(C#N)cnc3sc(-c4ccccc4OCCN(C)C)cc23)ccc2[nH]ccc12 [Compound 399, 2-{2-[2-(dimethylamino)ethoxy]phenyl}-4-[(4-methyl-1H-indol-5-yl)amino]thieno[2,3-b]pyridine-5-carbonitrile] | 1 nM |
| N#Cc1cnc2sc(-c3cccc(CNCCN4CCOCC4)c3)cc2c1Nc1ccc2[nH]ccc2c1 [Compound 170, 4-(1H-indol-5-ylamino)-2-(3-{[(2-morpholin-4-ylethyl)amino]methyl}phenyl)thieno[2,3-b]pyridine-5-carbonitrile] | 430 nM |
| N#Cc1cnc2sc(-c3cccc(CO)c3)cc2c1Nc1cccc2[nH]ccc12 [Compound 193, 2-[3-(hydroxymethyl)phenyl]-4-(1H-indol-4-ylamino)thieno[2,3-b]pyridine-5-carbonitrile] | 53 nM |
| CCOC(=O)c1cc2c(Nc3ccc4[nH]ccc4c3)c(C#N)cnc2s1 [Compound 502, ethyl 5-cyano-4-(1H-indol-5-ylamino)thieno[2,3-b]pyridine-2-carboxylate] | 1100 nM |
| Cc1c(Nc2c(C#N)cnc3sc(-c4ccccn4)cc23)ccc2[nH]ccc12 [Compound 440, 4-[(4-methyl-1H-indol-5-yl)amino]-2-pyridin-2-ylthieno[2,3-b]pyridine-5-carbonitrile] | 16 nM |
| CNS(=O)(=O)c1ccc(-c2sc3ncc(C#N)c(Nc4ccc5[nH]ccc5c4)c3c2C)cc1 [Compound 415, 4-[5-cyano-4-(1H-indol-5-ylamino)-3-methylthieno[2,3-b]pyridin-2-yl]-N-methylbenzenesulfonamide] | 642 nM |
| COC(=O)Nc1ccc(-c2cc3c(Nc4ccc5[nH]ccc5c4)c(C#N)cnc3s2)cc1 [Compound 342, methyl {4-[5-cyano-4-(1H-indol-5-ylamino)thieno[2,3-b]pyridin-2-yl]phenyl}carbamate] | 470 nM |
| CC(=O)c1cccc(-c2cc3c(Nc4ccc5[nH]ccc5c4C)c(C#N)cnc3s2)c1 [Compound 340, 2-(3-acetylphenyl)-4-[(4-methyl-1H-indol-5-yl)amino]thieno[2,3-b]pyridine-5-carbonitrile] | 26 nM |

| Structure (SMILES) | IC50 |
| --- | --- |
| Cc1ccc(CN(C)C)cc1-c1cc2c(Nc3ccc4[nH]ccc4c3C)c(C#N)cnc2s1 [Compound 368, 2-{5-[(dimethylamino)methyl]-2-methylphenyl}-4-[(4-methyl-1H-indol-5-yl)amino]thieno[2,3-b]pyridine-5-carbonitrile] | 100 nM |
| Cc1c(Nc2c(C#N)cnc3sc(/C=C/C(=O)Nc4cccnc4)cc23)ccc2[nH]ccc12 [Compound 296, (2E)-3-{5-cyano-4-[(4-methyl-1H-indol-5-yl)amino]thieno[2,3-b]pyridin-2-yl}-N-pyridin-3-ylacrylamide] | 17 nM |
| N#Cc1cnc2sc(/C=C/C(N)=O)cc2c1Nc1ccc2[nH]ccc2c1 [Compound 292, (2E)-3-[5-cyano-4-(1H-indol-5-ylamino)thieno[2,3-b]pyridin-2-yl]acrylamide] | 183 nM |
| N#Cc1cnc2sc(-c3cccc(CNCCCO)c3)cc2c1Nc1ccc2[nH]ccc2c1 [Compound 167, 2-(3-{[(3-hydroxypropyl)amino]methyl}phenyl)-4-(1H-indol-5-ylamino)thieno[2,3-b]pyridine-5-carbonitrile] | 110 nM |
| CON(C)C(=O)c1cccc(-c2cc3c(Nc4ccc5[nH]ccc5c4C)c(C#N)cnc3s2)c1 [Compound 354, 3-{5-cyano-4-[(4-methyl-1H-indol-5-yl)amino]thieno[2,3-b]pyridin-2-yl}-N-methoxy-N-methylbenzamide] | 18 nM |
| Cc1c(Nc2c(C#N)cnc3sc(C#Cc4cccc(CN(C)C)n4)cc23)ccc2[nH]ccc12 [Compound 220, 2-({6-[(dimethylamino)methyl]pyridin-2-yl}ethynyl)-4-(4-methyl-1H-indol-5-ylamino)thieno[2,3-b]pyridine-5-carbonitrile] | 14 nM |
| CC1CCCN1C(=O)/C=C/c1cc2c(Nc3ccc4[nH]ccc4c3)c(C#N)cnc2s1 (centres unmarked) [Compound 291, 4-(1H-indol-5-ylamino)-2-[(1E)-3-(2-methylpyrrolidin-1-yl)-3-oxoprop-1-en-1-yl]thieno[2,3-b]pyridine-5-carbonitrile] | 105 nM |
| Cc1c(Nc2c(C#N)cnc3sc(-c4cccnn4)cc23)ccc2[nH]ccc12 [Compound 523, 4-[(4-methyl-1H-indol-5-yl)amino]-2-pyridazin-3-ylthieno[2,3-b]pyridine-5-carbonitrile] | 15 nM |
| Cc1c(Nc2c(C#N)cnc3sc(-c4cccc5ccccc45)cc23)ccc2[nH]ccc12 [Compound 363, 4-[(4-methyl-1H-indol-5-yl)amino]-2-(1-naphthyl)thieno[2,3-b]pyridine-5-carbonitrile] | 401 nM |
| Cc1c(Nc2c(C#N)cnc3sc(/C=C/C(N)=O)cc23)ccc2[nH]ccc12 [Compound 297, (2E)-3-{5-cyano-4-[(4-methyl-1H-indol-5-yl)amino]thieno[2,3-b]pyridin-2-yl}acrylamide] | 12 nM |
| Cc1c(Nc2c(C#N)cnc3sc(-c4ccc(N5CCCCC5)nc4)cc23)ccc2[nH]ccc12 [Compound 397, 4-[(4-methyl-1H-indol-5-yl)amino]-2-(6-piperidin-1-ylpyridin-3-yl)thieno[2,3-b]pyridine-5-carbonitrile] | 292 nM |
| Cc1c(Nc2c(C#N)cnc3sc(-c4ccccc4OCCCN(C)C)cc23)ccc2[nH]ccc12 [Compound 383, 2-{2-[3-(dimethylamino)propoxy]phenyl}-4-[(4-methyl-1H-indol-5-yl)amino]thieno[2,3-b]pyridine-5-carbonitrile] | 64 nM |
| Cc1c(Nc2c(C#N)cnc3sc(-c4cccc(NS(C)(=O)=O)c4)cc23)ccc2[nH]ccc12 [Compound 360, N-(3-{5-cyano-4-[(4-methyl-1H-indol-5-yl)amino]thieno[2,3-b]pyridin-2-yl}phenyl)methanesulfonamide] | 23 nM |
| CONC(=O)c1ccc(-c2cc3c(Nc4ccc5[nH]ccc5c4C)c(C#N)cnc3s2)cc1 [Compound 358, 4-{5-cyano-4-[(4-methyl-1H-indol-5-yl)amino]thieno[2,3-b]pyridin-2-yl}-N-methoxybenzamide] | 10 nM |
| COc1ccc(C)cc1-c1cc2c(Nc3ccc4[nH]ccc4c3C)c(C#N)cnc2s1 [Compound 366, 2-(2-methoxy-5-methylphenyl)-4-[(4-methyl-1H-indol-5-yl)amino]thieno[2,3-b]pyridine-5-carbonitrile] | 106 nM |
| Cc1c(Nc2c(C#N)cnc3sc(-c4cccc(S(=O)(=O)N(C)C)c4)cc23)ccc2[nH]ccc12 [Compound 237, 3-{5-cyano-4-[(4-methyl-1H-indol-5-yl)amino]thieno[2,3-b]pyridin-2-yl}-N,N-dimethylbenzenesulfonamide] | 50 nM |
| CN(C)Cc1ccc(-c2cc3c(Nc4ccc5[nH]ccc5c4)c(C#N)cnc3s2)o1 [Compound 153, 2-{5-[(dimethylamino)methyl]-2-furyl}-4-(1H-indol-5-ylamino)thieno[2,3-b]pyridine-5-carbonitrile] | 170 nM |
